Data from PubChem BioAssay AID248 (DTP/NCI, 2004).
Several values for one entry are separate records, joined by “and”; a condition that tells them apart may be missing. Identical values can stand only once. Inconclusive results and toxic doses are left out. Cut-off read from the data, not from the text of the source: active = T/C of 150% or more; inactive = T/C below 125%.

System: L1210 leukemia ip in BDF1 mice, survival T/C
Test: NCI In Vivo Anticancer Drug Screen. Data for tumor model L1210 Leukemia (intraperitoneal) in B6D2F1 (BDF1) mice
Conditions: endpoint: mean survival time, higher = longer survival
How it was run: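 Mice bearing the transplanted tumor received compound or vehicle. Survival of the treated group was divided by that of the vehicle-treated control group to give the ratio.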

[1] = dose: 100.0 mg/kg/injection, schedule: Q01DX009 (ip), vehicle: saline with Tween-80
[2] = dose: 100.0 mg/kg/injection, schedule: Q04DX003 (ip), vehicle: saline with Tween-80
[3] = dose: 200.0 mg/kg/injection, schedule: Q01DX009 (ip), vehicle: saline with Tween-80
[4] = dose: 200.0 mg/kg/injection, schedule: Q04DX003 (ip), vehicle: saline with Tween-80
[5] = dose: 400.0 mg/kg/injection, schedule: Q01DX009 (ip), vehicle: saline with Tween-80
[6] = dose: 400.0 mg/kg/injection, schedule: Q04DX003 (ip), vehicle: saline with Tween-80
[7] = dose: 100.0 mg/kg/injection, schedule: Q01DX001 (ip), vehicle: saline
[8] = dose: 200.0 mg/kg/injection, schedule: Q01DX001 (ip), vehicle: saline
[9] = dose: 400.0 mg/kg/injection, schedule: Q01DX001 (ip), vehicle: saline
[10] = dose: 50.0 mg/kg/injection, schedule: Q01DX001 (ip), vehicle: saline
[11] = dose: 100.0 mg/kg/injection, schedule: Q01DX001 (ip), vehicle: Klucel (hydroxypropylcellulose) (HPC)
[12] = dose: 200.0 mg/kg/injection, schedule: Q01DX001 (ip), vehicle: Klucel (hydroxypropylcellulose) (HPC)
[13] = dose: 400.0 mg/kg/injection, schedule: Q01DX001 (ip), vehicle: Klucel (hydroxypropylcellulose) (HPC)
[14] = dose: 100.0 mg/kg/injection, schedule: Q01DX009 (ip), vehicle: Klucel (hydroxypropylcellulose) (HPC)
[15] = dose: 100.0 mg/kg/injection, schedule: Q04DX003 (ip), vehicle: Klucel (hydroxypropylcellulose) (HPC)
[16] = dose: 200.0 mg/kg/injection, schedule: Q01DX009 (ip), vehicle: Klucel (hydroxypropylcellulose) (HPC)
[17] = dose: 200.0 mg/kg/injection, schedule: Q04DX003 (ip), vehicle: Klucel (hydroxypropylcellulose) (HPC)
[18] = dose: 400.0 mg/kg/injection, schedule: Q01DX009 (ip), vehicle: Klucel (hydroxypropylcellulose) (HPC)
[19] = dose: 400.0 mg/kg/injection, schedule: Q04DX003 (ip), vehicle: Klucel (hydroxypropylcellulose) (HPC)
[20] = dose: 100.0 mg/kg/injection, schedule: Q01DX009 (ip), vehicle: saline
[21] = dose: 200.0 mg/kg/injection, schedule: Q01DX009 (ip), vehicle: saline
[22] = dose: 400.0 mg/kg/injection, schedule: Q01DX009 (ip), vehicle: saline
[23] = dose: 200.0 mg/kg/injection, schedule: Q04DX002 (ip), vehicle: saline

Measured: T/C

O=C(Nc1ccccc1[N+](=O)[O-])OCCOc1ccccc1
inactive: dose: 100.0 mg/kg/injection, schedule: Q01DX001 (ip), vehicle: saline with Tween-80 98 % of control | [1] 103 % of control and 90 % of control | dose: 100.0 mg/kg/injection, schedule: Q04DX002 (ip), vehicle: saline with Tween-80 93 % of control and 95 % of control | [2] 97 % of control | dose: 200.0 mg/kg/injection, schedule: Q01DX001 (ip), vehicle: saline with Tween-80 91 % of control | [3] 100 % of control and 92 % of control | dose: 200.0 mg/kg/injection, schedule: Q04DX002 (ip), vehicle: saline with Tween-80 98 % of control and 100 % of control | [4] 103 % of control | dose: 400.0 mg/kg/injection, schedule: Q01DX001 (ip), vehicle: saline with Tween-80 93 % of control | [5] 93 % of control and 90 % of control | dose: 400.0 mg/kg/injection, schedule: Q04DX002 (ip), vehicle: saline with Tween-80 104 % of control and 92 % of control | [6] 105 % of control

CCCCOCN1C(=O)N(COCCCC)C(=O)C(CC)(c2ccccc2)C1=O
inactive: [1] 97 % of control | [3] 94 % of control | [5] 87 % of control

Cc1c(CCC(C)C)oc2cc3oc(CCC(C)C)c(C)c3cc12
inactive: dose: 75.0 mg/kg/injection, schedule: Q01DX001 (ip), vehicle: carboxymethylcellulose (CMC) 96 % of control | dose: 150.0 mg/kg/injection, schedule: Q01DX001 (ip), vehicle: carboxymethylcellulose (CMC) 90 % of control | dose: 300.0 mg/kg/injection, schedule: Q01DX001 (ip), vehicle: carboxymethylcellulose (CMC) 90 % of control

CC(=O)OCCN1CCN(CCOC(C)=O)CC1
inactive: [7] 96 % of control | [8] 102 % of control | [9] 94 % of control

N#CCCCC1(CCCC#N)OCCO1
inactive: dose: 25.0 mg/kg/injection, schedule: Q01DX009 (ip), vehicle: saline 94 % of control | dose: 50.0 mg/kg/injection, schedule: Q01DX009 (ip), vehicle: saline 100 % of control

CCN(CC)CCCC(C)Nc1ccnc2c1ccc1ccccc12 (configuration not stated)
inactive: [10] 98 % of control | [7] 101 % of control | [8] 106 % of control | [9] 112 % of control

CN(C)S(=O)(=O)N(C)C
inactive: [11] 96 % of control | [12] 102 % of control | [13] 102 % of control

CC(C)CCCC(C)C1CCC2C3CC=C4CC(OC(=O)CCl)CCC4(C)C3CCC12C (configuration not stated)
inactive: [10] 101 % of control | [7] 95 % of control | [8] 95 % of control | [9] 101 % of control

CC(C)(C)NCCCC(=O)O
inactive: [2] 110 % of control | [4] 100 % of control | [6] 92 % of control

C#CCN(Cc1ccccc1)C(=O)Nc1cccc(Cl)c1
inactive: dose: 100.0 mg/kg/injection, schedule: Q04DX003 (ip), vehicle: other 106 % of control | dose: 200.0 mg/kg/injection, schedule: Q04DX003 (ip), vehicle: other 98 % of control | dose: 400.0 mg/kg/injection, schedule: Q04DX003 (ip), vehicle: other 96 % of control

CC(=O)OCC(OC(C)=O)C(OC(C)=O)C(C=O)OC(C)=O (configuration not stated)
inactive: [11] 105 % of control | [1] 90 % of control | [2] 93 % of control | [12] 97 % of control | [3] 93 % of control | [4] 88 % of control | [13] 105 % of control | [5] 88 % of control | [6] 91 % of control

CN=C(c1ccc(NC(=O)c2cc(C(=O)Nc3ccc(C(=NC)N(C)C)cc3)cc([N+](=O)[O-])c2)cc1)N(C)C
inactive: dose: 1.88 mg/kg/injection, schedule: Q01DX Z (ip), vehicle: saline 100 % of control | dose: 3.75 mg/kg/injection, schedule: Q01DX Z (ip), vehicle: saline 100 % of control | dose: 7.5 mg/kg/injection, schedule: Q01DX Z (ip), vehicle: saline 98 % of control

CCCCCCC(=O)/C=C/C=C/c1ccccc1
inactive: [14] 97 % of control | [15] 98 % of control | [16] 91 % of control | [17] 98 % of control | [18] 100 % of control | [19] 94 % of control

[Cl][Pt+2][Cl].[NH-]c1ccc([N+](=O)[O-])cc1.[NH-]c1ccc([N+](=O)[O-])cc1
inactive: dose: 100.0 mg/kg/injection, schedule: Q04DX003 (ip), vehicle: saline 102 % of control | dose: 200.0 mg/kg/injection, schedule: Q04DX003 (ip), vehicle: saline 113 % of control

CCCCCC[Si](CCCCCC)CCCCCC
inactive: dose: 75.0 mg/kg/injection, schedule: Q04DX003 (ip), vehicle: saline with Tween-80 93 % of control | [20] 102 % of control | dose: 150.0 mg/kg/injection, schedule: Q04DX003 (ip), vehicle: saline with Tween-80 90 % of control | [21] 105 % of control | dose: 300.0 mg/kg/injection, schedule: Q04DX003 (ip), vehicle: saline with Tween-80 88 % of control | [22] 93 % of control

CCOC1(OCC)C([N+](=O)[O-])=CC(=[N+]([O-])O)C=C1[N+](=O)[O-]
inactive: [10] 102 % of control | [7] 98 % of control | [8] 98 % of control | [9] 101 % of control

CC12CCC=CC1=CC(=O)CC2 (configuration not stated)
inactive: dose: 75.0 mg/kg/injection, schedule: Q01DX001 (ip), vehicle: other 98 % of control | dose: 150.0 mg/kg/injection, schedule: Q01DX001 (ip), vehicle: other 106 % of control | dose: 300.0 mg/kg/injection, schedule: Q01DX001 (ip), vehicle: other 103 % of control

O=C(Cc1cccc([N+](=O)[O-])c1)Nc1ccc(S(=O)(=O)F)cc1
inactive: [7] 112 % of control | [8] 111 % of control | [9] 110 % of control

COC(=O)C12N=NN(c3ccccc3)C1(C(=O)OC)C1CCC2C1 (configuration not stated)
inactive: [1] 106 % of control | [15] 96 % of control | [3] 94 % of control | [17] 102 % of control | [5] 98 % of control | [19] 97 % of control

CCOCc1c(COc2ccc(Cl)cc2)n(C)c2ccccc12
inactive: dose: 100.0 mg/kg/injection, schedule: Q04DX002 (ip), vehicle: saline 98 % of control | [23] 98 % of control | dose: 400.0 mg/kg/injection, schedule: Q04DX002 (ip), vehicle: saline 104 % of control

CN(C)C(C(N)=O)C(=O)c1ccccc1 (configuration not stated)
inactive: [7] 102 % of control | [8] 104 % of control | [9] 88 % of control

O=S(=O)(O)c1ccc(-c2nc(-c3ccccc3)c(-c3ccccc3)[nH]2)cc1
inactive: [20] 102 % of control | [21] 102 % of control | [22] 101 % of control

COc1ccccc1/C=N/NC(=O)CCCCCCCCC(=O)N/N=C/c1ccccc1OC
inactive: [14] 95 % of control | [16] 88 % of control | [18] 88 % of control

ClCc1cc(Cl)c(Cl)cc1Cl
inactive: dose: 25.0 mg/kg/injection, schedule: Q01DX009 (ip), vehicle: acetone 93 % of control | dose: 50.0 mg/kg/injection, schedule: Q01DX009 (ip), vehicle: acetone 92 % of control | dose: 100.0 mg/kg/injection, schedule: Q01DX009 (ip), vehicle: acetone 90 % of control | dose: 100.0 mg/kg/injection, schedule: Q04DX003 (ip), vehicle: acetone 100 % of control | dose: 150.0 mg/kg/injection, schedule: Q01DX009 (ip), vehicle: acetone 95 % of control

CC(C)=CCNc1ncnc2c1nnn2C1OC(CO)C(O)C1O (configuration not stated)
inactive: dose: 100.0 mg/kg/injection, schedule: Q01DX001 (ip), vehicle: water 105 % of control | dose: 200.0 mg/kg/injection, schedule: Q01DX001 (ip), vehicle: water 101 % of control | dose: 400.0 mg/kg/injection, schedule: Q01DX001 (ip), vehicle: water 101 % of control

CCCCOC(CN)C(Cl)(Cl)Cl (configuration not stated)
inactive: dose: 6.0 mg/kg/injection, schedule: Q04DX002 (ip), vehicle: saline 96 % of control and 97 % of control | dose: 12.0 mg/kg/injection, schedule: Q04DX002 (ip), vehicle: saline 104 % of control and 87 % of control | dose: 12.5 mg/kg/injection, schedule: Q01DX009 (ip), vehicle: saline 97 % of control and 98 % of control | [21] 96 % of control and 101 % of control | [23] 97 % of control
